From ChEMBL document CHEMBL1201862, “PubChem BioAssay data set” (2004)
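Following 48 hours of exposure in 96-well plates, responses at five concentrations were used to interpolate endpoints linearly. GI50 marks 50% less growth.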 The source made the active and inactive calls. Rule as the data show it: active = GI50 up to about 1.1 µM and inactive = higher.

How the values were obtained:
Assay in all cases: growth of human tumour cells (NCI), 48 h
[1] = system: SK-MEL-2
[2] = system: Malme-3M
[3] = system: M14
[4] = system: SK-MEL-5
[5] = system: KM12
[6] = system: UACC-62
[7] = system: HCC 2998
[8] = system: SW-620
[9] = system: OVCAR-8
[10] = system: HOP-62
[11] = system: SNB-75
[12] = system: SR
[13] = system: HCT-15
[14] = system: SF-295
[15] = system: TK-10
[16] = system: NCI-H460
[17] = system: ACHN
[18] = system: OVCAR-4
[19] = system: K562
[20] = system: CCRF-CEM

In the case of `CCOC(=O)C12CCC(=O)C=C1[C@@H](C)C(=O)CC2` (some centres not stated), the GI50 [1] was > 100 µM (inactive), the GI50 [2] was > 100 µM (inactive) and the GI50 [3] was > 100 µM (inactive). For the same compound, the GI50 [4] was > 100 µM (inactive), the GI50 [5] was > 100 µM (inactive) and the GI50 [6] was > 100 µM (inactive). The GI50 [7] was > 100 µM (inactive), the GI50 [8] was > 100 µM (inactive) and the GI50 [9] was > 100 µM (inactive). For the same compound, the GI50 [10] was > 100 µM (inactive), the GI50 [11] was > 100 µM (inactive) and the GI50 [12] was > 100 µM (inactive). The GI50 [13] was greater than 100 µM, the GI50 [14] was > 100 µM (inactive) and the GI50 [15] was > 100 µM (inactive). For the same compound, the GI50 [16] was > 100 µM (inactive) and the GI50 [17] was > 100 µM (inactive).
For `Clc1ccc(Cc2nc3cc(Cl)c(Cl)cc3n2CC2CCCN3CCCCC23)cc1` (configuration not stated), the GI50 [1] was 16 µM (inactive), the GI50 [2] was 7.87 µM (inactive) and the GI50 [3] was 2.65 µM (inactive). For the same compound, the GI50 [4] was 11.3 µM (inactive), the GI50 [5] was 6.59 µM (inactive) and the GI50 [6] was 7.8 µM (inactive). The GI50 [18] was 16.7 µM (inactive), the GI50 [7] was 3.68 µM (inactive) and the GI50 [8] was 13.6 µM (inactive). The GI50 [9] was 12.8 µM (inactive), the GI50 [10] was 18.5 µM (inactive) and the GI50 [11] was 7.76 µM (inactive). For the same compound, the GI50 [12] was 3.35 µM (inactive), the GI50 [13] was 10.7 µM and the GI50 [14] was 13.4 µM (inactive). The GI50 [19] was 7.41 µM (inactive), the GI50 [15] was 14.4 µM (inactive) and the GI50 [16] was 7.53 µM (inactive). For the same compound, the GI50 [17] was 10.1 µM (inactive).
In the case of `CCCC(C(=O)Nc1cccc2nc[nH]c12)C(=O)OCC` (configuration not stated), the GI50 [1] was > 100 µM (inactive), the GI50 [3] was > 100 µM (inactive) and the GI50 [5] was > 100 µM (inactive). For the same compound, the GI50 [6] was > 100 µM (inactive), the GI50 [18] was > 100 µM (inactive) and the GI50 [7] was > 100 µM (inactive). For the same compound, the GI50 [8] was > 100 µM (inactive), the GI50 [9] was > 100 µM (inactive) and the GI50 [10] was > 100 µM (inactive). The GI50 [11] was > 100 µM (inactive), the GI50 [12] was > 100 µM (inactive) and the GI50 [13] was greater than 100 µM. The GI50 [14] was > 100 µM (inactive), the GI50 [19] was > 100 µM (inactive) and the GI50 [15] was > 100 µM (inactive). The GI50 [16] was > 100 µM (inactive) and the GI50 [17] was > 100 µM (inactive).
`COc1cc(C2C(Cl)C(=O)N2NC(=O)c2ccc(NC(C)=O)cc2)cc(Br)c1O` (configuration not stated) was tested, and the GI50 [1] was > 100 µM (inactive), the GI50 [2] was > 100 µM (inactive) and the GI50 [4] was > 100 µM (inactive). The GI50 [5] was > 100 µM (inactive), the GI50 [6] was > 100 µM (inactive) and the GI50 [7] was > 100 µM (inactive). The GI50 [20] was > 100 µM (inactive), the GI50 [8] was > 100 µM (inactive) and the GI50 [9] was > 100 µM (inactive). For the same compound, the GI50 [10] was > 100 µM (inactive), the GI50 [11] was > 100 µM (inactive) and the GI50 [12] was > 100 µM (inactive). The GI50 [14] was > 100 µM (inactive), the GI50 [19] was > 100 µM (inactive) and the GI50 [15] was > 100 µM (inactive). For the same compound, the GI50 [16] was > 100 µM (inactive) and the GI50 [17] was > 100 µM (inactive).
In the case of `CC1(C)OC2OC(C(=O)c3ccccc3)C3OC(C)(C)OC3C2O1` (configuration not stated), the GI50 [1] was > 100 µM (inactive), the GI50 [3] was > 100 µM (inactive) and the GI50 [4] was > 100 µM (inactive). For the same compound, the GI50 [5] was > 100 µM (inactive), the GI50 [6] was > 100 µM (inactive) and the GI50 [18] was > 100 µM (inactive). For the same compound, the GI50 [7] was > 100 µM (inactive), the GI50 [20] was > 100 µM (inactive) and the GI50 [8] was > 100 µM (inactive). For the same compound, the GI50 [9] was > 100 µM (inactive), the GI50 [10] was > 100 µM (inactive) and the GI50 [11] was > 100 µM (inactive). The GI50 [12] was > 100 µM (inactive), the GI50 [13] was greater than 100 µM and the GI50 [14] was > 100 µM (inactive). The GI50 [19] was > 100 µM (inactive), the GI50 [15] was > 100 µM (inactive) and the GI50 [16] was > 100 µM (inactive). The GI50 [17] was > 100 µM (inactive).
`C=CCN1C(=O)/C(=C/c2ccco2)N=C1SC1OC(COC(C)=O)C(OC(C)=O)C(OC(C)=O)C1OC(C)=O` (configuration not stated) was tested, and the GI50 [1] was > 100 µM (inactive), the GI50 [2] was 89.5 µM (inactive) and the GI50 [4] was > 100 µM (inactive). The GI50 [5] was > 100 µM (inactive), the GI50 [6] was 83.9 µM (inactive) and the GI50 [18] was > 100 µM (inactive). For the same compound, the GI50 [7] was > 100 µM (inactive), the GI50 [8] was > 100 µM (inactive) and the GI50 [9] was > 100 µM (inactive). The GI50 [10] was > 100 µM (inactive), the GI50 [11] was > 100 µM (inactive) and the GI50 [12] was 38.9 µM (inactive). The GI50 [13] was 88.1 µM, the GI50 [14] was > 100 µM (inactive) and the GI50 [19] was 39.8 µM (inactive). For the same compound, the GI50 [15] was > 100 µM (inactive), the GI50 [16] was > 100 µM (inactive) and the GI50 [17] was > 100 µM (inactive).
`COC(=O)CC(=O)OSc1ccccc1` was tested, and the GI50 [1] was 34.6 µM (inactive), the GI50 [2] was 42.4 µM (inactive) and the GI50 [3] was 17.6 µM (inactive). For the same compound, the GI50 [4] was 22.3 µM (inactive), the GI50 [5] was 25.5 µM (inactive) and the GI50 [6] was 14.9 µM (inactive). The GI50 [18] was 28.6 µM (inactive), the GI50 [7] was 28.1 µM (inactive) and the GI50 [20] was 3.76 µM (inactive). The GI50 [8] was 18.1 µM (inactive), the GI50 [10] was 22.4 µM (inactive) and the GI50 [12] was 6.03 µM (inactive). The GI50 [14] was 27.5 µM (inactive), the GI50 [19] was 35.2 µM (inactive) and the GI50 [15] was 43 µM (inactive). For the same compound, the GI50 [16] was 38.5 µM (inactive) and the GI50 [17] was 18.2 µM (inactive).
`CCc1nc(N)c2nc(-c3ccc(C#N)cc3)oc2n1` was tested, and the GI50 [1] was > 100 µM (inactive), the GI50 [3] was > 100 µM (inactive) and the GI50 [4] was > 100 µM (inactive). For the same compound, the GI50 [5] was > 100 µM (inactive), the GI50 [6] was > 100 µM (inactive) and the GI50 [7] was > 100 µM (inactive). For the same compound, the GI50 [20] was > 100 µM (inactive), the GI50 [8] was > 100 µM (inactive) and the GI50 [9] was > 100 µM (inactive). The GI50 [10] was > 100 µM (inactive), the GI50 [11] was > 100 µM (inactive) and the GI50 [12] was > 100 µM (inactive). For the same compound, the GI50 [13] was greater than 100 µM, the GI50 [14] was > 100 µM (inactive) and the GI50 [19] was > 100 µM (inactive). The GI50 [15] was > 100 µM (inactive), the GI50 [16] was > 100 µM (inactive) and the GI50 [17] was > 100 µM (inactive).
